{"source": "patent US20140065237A1", "about": "“BIOLOGICALLY ACTIVE FOOD ADDITIVE FOR THE PROPHYLAXIS OF ERECTILE DYSFUNCTION IN MEN” (priority 2011, published 2014)", "system": "men with the diagnosis of erectile dysfunction and chronic prostatitis", "test": "Clinical study of the BAA versus its single components (IIEF questionnaire, patient diaries), medical center \"Secrets of Longevity\"", "type": "in vivo, human", "conditions": "2 tablets twice a day", "description": "For the prevention of erectile dysfunction, the BAA in compound of L-Arginine—250 mg, drone brood—50 mg is taken by 2 tablets two times per day during one month out of meals. An interval during the intake is one month. […] The study included […] with the diagnosis of erectile dysfunction and chronic prostatitis, at the age from 30 to 50 years old (average age is 43). The duration of erectile dysfunction was from 6 months to 3 years (average duration is one year). A consent was received from all males participated in the study.\nThe experimental group (10 patients) was appointed to the proposed agent by 2 tablets twice a day in the morning hours. The 1-st experimental group (10 patients) was administered L-Arginine—250 mg, 2 tablets 2 times per day in the morning hours.\nThe 2-nd experimental group (10 patients) was administered drone brood—50 mg, 2 tablets 2 times per day in the morning hours. Patients' examination involved the checkup, collection of complains in accordance with the symptoms scale 1P88, and questionnaire of International Index of Erectile Function (IIEF), with consideration of objective factors: ultrasound investigation of prostate gland, clinical blood analysis, urine test, including the results of prostate gland palpation. Patients' examination took place before and after the agent prescription.\nAn efficiency of the claimed agent was evaluated by the change of IIEF's exponents. Within a week, prior to and during the course of agent intake, patients were keeping a diary of disease estimation, and they recorded the frequency and degree of sexual attraction, valuation of erection, frequency of sexual intercourse and their sensations in each case.", "data": [{"smiles": "N=C(N)NCCC[C@H](N)C(=O)O", "note": "[L-Arginine]", "values": [{"measurement": "full sexual relations provided or not", "value": "not providing the full sexual relations"}, {"measurement": "effect starts within ... after taking of the agent", "setting": "irrespective of age and extent of sexual disorder", "value": "2 to 3", "unit": "h"}, {"measurement": "erectile function", "setting": "10 patients per group", "value": 20, "unit": "%"}, {"measurement": "feeling of orgasm, change of sensations", "setting": "10 patients per group", "value": 20, "unit": "%"}, {"measurement": "number of ejaculations has grown up (share of cases)", "setting": "10 patients per group", "value": 20, "unit": "%"}, {"measurement": "overall satisfaction", "setting": "10 patients per group", "value": 20, "unit": "%"}, {"measurement": "refractory period after the emission of seminal fluid has not changed (share of patients)", "setting": "10 patients per group", "value": 100, "unit": "%"}, {"measurement": "sexual intercourse satisfaction", "setting": "10 patients per group", "value": 20, "unit": "%"}, {"measurement": "strengthening of sexual attraction (libido) recorded (share of cases)", "setting": "10 patients per group", "value": 100, "unit": "%"}]}]}
